This passage reports melting point results from a melting point compilation (Tetko et al.; mined from patent text by program, amines drawn as free bases though some values may be those of a salt).

Residues, ends and D or L forms follow the SMILES beside them. *: point of attachment. Cbz = O=C(OCc1ccccc1)*; Boc = CC(C)(C)OC(=O)* A value given as a limit tells only on which side of the number the result lay.

In general, melting point refers to the temperature, or range, at which the solid turns liquid. Regarding `Cn1cc(S(N)(=O)=O)c(=O)c2ccc(Cl)cc21`, the melting point was in the range of 235 to 237 °C.
`CC(C)CC(NC(=O)OCc1ccccc1)C(=O)NC(CCCCNC(=O)OC(C)(C)C)C(=O)O` (stereo not drawn) (Cbz-Leu-Lys(Boc)-OH; configuration not given here) showed a melting point of 125 to 128 °C.
`C=C(c1ccccc1)c1ccc(N)c(N)c1`: the melting point lay within 109 to 110 °C.
Take `CC(=O)N1CCc2cc3c(cc21)C(=O)C(=O)N3`: the melting point is more than 250 °C.
Compound `N=C(N)Nc1ccc(C(=O)Nc2cccc3cccnc23)cc1` had a melting point of 271 to 273 °C.
For `O=C(Nc1cnc(-c2ccccc2)nc1C(=O)O)OCc1ccc(-c2ccccc2)cc1` the value was 173 °C; for `CC(=O)Oc1cccc2c1N=CC1CCCN1C2=O` (centres undefined), 143 to 146 °C.
The compound `NC(=O)CC1CN=C(c2cc3cccc(NS(=O)(=O)c4cccs4)c3[nH]2)S1` (centres undefined) yielded a melting point of 130 to 131 °C.
`Cc1ccc2c(c1)C=Cc1cc(C)ccc1C2c1cn(Cc2nc(C(=O)N[C@@H](CC(=O)O)C(=O)O)cs2)c(=O)[nH]c1=S`: the melting point was determined as 175 °C.
The compound `CCC(COC)(OC)c1cccc(OCOC)c1` (centres undefined) had a melting point of 74 to 75 °C.
`CCOC(=O)Nc1ccc(OC)c(OC)c1C1OCCO1` yielded a melting point of 95 to 96 °C.
`CC(C)(C)NCC(O)c1ccc(F)cc1` (centres undefined): the melting point is 117 °C.
To `Cc1cc(=O)n(-c2cc(C(=O)OC(C)C)c(C#N)cc2F)c(=O)n1C` belongs 188 to 200 °C.
For `c1ccc(-c2ncc(-c3cnc[nH]3)cn2)cc1`, the melting point was found to be 216 °C.
Turning to `CCCCC(=O)Nc1ccc(C(F)(F)F)c(-n2nc(CC)n(Cc3ccc(-c4ccccc4S(=O)(=O)NC(C)(C)C)cc3F)c2=O)c1`, the melting point was in the range of 243 to 245 °C.
Take `COc1cc2nc(C)c(CO)nc2cc1OC`: the melting point is 176 to 177 °C.
In the case of `CC(c1cccnc1)c1c[nH]c(=S)[nH]c1=O` (centres undefined), the melting point fell in the range of 225 to 228 °C.
For the compound `Nc1cc(OCc2cccc(I)c2)c(C(=O)NC2CN3CCC2CC3)cc1Cl` (centres undefined), the melting point was in the range of 102 to 104 °C.
Consider `CC(C)CC(S)C(=O)NC(Cc1ccc(Br)nc1)C(=O)NC(Cc1ccc(-c2cccs2)nc1)C(=O)O` (centres undefined), for which the melting point fell in the range of 194 to 195 °C.
For `O=c1c(Cl)c(S(=O)(=O)C2CCCCC2)cnn1-c1ccccc1` the value was 195 to 196 °C; for `CCS(=O)(=O)Cc1ccc(Cl)c2nc3n(c12)CCCN3c1ccc(Cl)cc1Cl`, 278 to 280 °C; for `CCNc1ncc2ccc(=O)n(-c3ccccc3)c2n1`, 193 to 195 °C.
In turn, `O=C1N(Cc2ccc3nonc3c2)c2ccccc2C12COc1cc3c(cc12)OCCO3` (centres undefined) registered a melting point of 164 to 166 °C.
`CS(=O)(=O)c1ccc(Oc2ccc(Cl)c(Cl)c2)c(C#N)c1`: the melting point was in the range of 162 to 163 °C.
Take `COC(=O)[C@H](Cc1ccc(O)cc1)Nc1ccccc1C(=O)c1ccccc1`: the melting point lay within 185 to 186 °C.
In turn, `CN(C)CCNc1ccnc2cc(C(F)(F)F)ccc12` gave a melting point of 110 to 113 °C.
In turn, `CCCCCCCCCCCCNC(=O)c1cc(-c2ccc(OC)cc2)cc(-c2cccc(Cl)c2OCC(=O)O)c1` displayed a melting point of 114 to 117 °C.
For `CC(=O)c1ccc(S)cc1OCC(=O)O` the value was 149 to 150 °C; for `O=C(CCCCc1ccc2c(c1)OCO2)NC1CCCCC1`, 145 to 146 °C.
Take `O=C(NCc1ccccc1)c1ccnc(N2CCN(Cc3ccncc3)C2=O)c1`: the melting point lay in the range of 154 to 156 °C.
For `O=c1[nH]c(S)nnc1-c1cc(O)c(O)c([N+](=O)[O-])c1` the value was 282 to 284 °C; for `Cc1ccc(C(=O)C=CN(C)C)s1`, 118 to 121 °C; for `O=C(OC1CCCCC1)C(c1ccccc1)n1cnc2[nH]ncc2c1=S` (centres undefined), 170 to 173 °C.
`O=C1OC(CCc2ccccc2)(c2ccccc2)CC(O)=C1CCc1ccccc1` (centres undefined): the melting point lay in the range of 68 to 70 °C.
Take `CCOc1cc2ncc(C#N)c(Nc3cccc(C(C)=O)c3)c2cc1OCC`: the melting point was in the range of 191 to 194 °C.
To `CSc1ccc(C=O)cc1Cl` belongs 58 to 59 °C.
On to `CC(CO)N=C(c1ccccc1)c1cc(Cl)ccc1NC(=O)CN` (centres undefined), for which the melting point is 168 to 172 °C.
In turn, `CN(C)CC(=O)Nc1cccc2c1C(=O)c1c(NC(=O)CN(C)C)cccc1C2=O` displayed a melting point of 194 to 195 °C.
`CCOC(=O)C(C)Oc1ccc(Oc2nc3ccccc3cc2Cl)cc1` (centres undefined) gave a melting point of 86 °C.
As to `COc1cc2c(cc1O)CCN(C(=O)c1ccc(OC)c(OC)c1)C2`, the melting point lay within 132 to 133 °C.
`Cc1ccc(Cn2c(NC3CCN(CC(O)COc4ccccc4)CC3)nc3ccccc32)o1` (centres undefined) showed a melting point of 165 °C.
In turn, `CCCCCCNC(=O)C(CCC(=O)O)NC(=O)C(NC(=O)OC(C)(C)C)C(C)C` (centres undefined) displayed a melting point of 63 to 65 °C.
Compound `Cn1c2c(c3ccccc31)CCNC2` gave a melting point of more than 250 °C.
The compound `COc1ccc(C(O)CN)cc1OCc1ccccc1` (centres undefined) gave a melting point of 101 to 102 °C.
The compound `CSc1nc(C)nc2c1-c1ccc(Cl)cc1C(c1ccccc1)=NC2` displayed a melting point of 181 to 183 °C.
`CCOC(=O)CCc1nnc(-c2nccs2)c2cc(OC)ccc12`: the melting point fell in the range of 153 to 154 °C.
`CC(C)(N)Cc1nc2ccccc2[nH]1` registered a melting point of 209 to 214 °C.
To `Nc1ccc(C2CCc3ccccc3O2)cc1` (centres undefined) belongs 85 to 87 °C; to `O=C(NCCN1CCC(Nc2nc3ccccc3n2Cc2ccc(F)cc2)CC1)c1ccc(F)cc1`, 194 °C.
`O=C(c1ccn2c1CSC2c1cccnc1)c1c[nH]c2cc(-c3ccc(F)cc3)ccc12` (centres undefined): the melting point fell in the range of 248 to 252 °C.
`O=C(O)c1cn(-c2cc([N+](=O)[O-])c(F)cc2F)c2cc(F)c(F)cc2c1=O` came in with a melting point of more than 270 °C.
On to `COc1cc(-n2cnc(CO)c2)cc(C(F)(F)F)c1`, for which the melting point lay in the range of 133 to 134 °C.
Consider `CCCc1c(OCCCS(=O)(=O)c2ccc(C3=CCC(=O)O3)cc2)ccc(C(C)=O)c1O`, for which the melting point is 135 to 136 °C.
As for `CC(=O)CCc1ccc(I)cc1`, the melting point was in the range of 75 to 76 °C.
For the compound `COc1ccc(Cn2c(=O)c3cnc(Nc4ccc(N5CCN(C)CC5)cc4)nc3n(C(C)C)c2=O)cc1`, the melting point fell in the range of 215 to 216 °C.
For `O=C(O)c1cc(SC(F)(F)F)c(-c2ccc(Cl)cc2)[nH]1` the value was 176 to 178 °C; for `CC1(C)C=C(c2ccncc2O)c2ccccc2O1`, 228 to 230 °C; for `CCOC(=O)C1=CC2(CCC1S(=O)(=O)Nc1ccc(F)cc1Cl)S(=O)(=O)CCS2(=O)=O` (centres undefined), 88 to 90 °C.
On to `COc1ccc(Cn2cnc3c(-c4ccco4)nc(N(C)C)nc32)cc1`, for which the melting point fell in the range of 163 to 164 °C.
The compound `CC(=O)NC(C(=O)O)c1ccc2occc2c1` (centres undefined) gave a melting point of 230 to 232 °C.
To `CCCC1=C(C(=O)OCC)C(c2ccccc2N)c2c[nH]nc2N1` (centres undefined) belongs 179 °C; to `CCN(CC)CCOc1ccc(Nc2nccc(-c3cccnc3)n2)cc1`, 87 to 89 °C; to `CCCS(=O)(=O)c1c(Cl)cnc(Cl)c1Cl`, 73 to 78 °C.
Turning to `COc1ccc(Sc2c(C(=O)O)[nH]c3cc(C)ccc23)cc1`, the melting point fell in the range of 190 to 192 °C.
To `CCOP(=O)(OCC)c1nc(N2CCCCC2)nc(N2CCCCC2)n1` belongs 103 to 105 °C.
As for `CC(C)(C)CC(C)(C)c1ccc(OCC(=O)Nc2ccc(Cl)c(Nc3cc(=O)n(-c4c(Cl)cc(Cl)cc4Cl)[nH]3)c2)cc1`, the melting point was 126 to 128 °C.
For `O=c1[nH]c2ncc(-c3ccc(-c4nn[nH]n4)cc3)nc2n1CC1CCCCC1` the value was more than 400 °C; for `NS(=O)(=O)c1ccc2c(c1)S(=O)(=O)NC(C1CCCCC1)N2` (centres undefined), 252 to 254 °C; for `COc1c(C(=O)Nc2ccc(-n3nc(C(F)(F)F)cc3C(F)(F)F)cc2)csc1Cl`, 119 to 120 °C.
To `CN1CCN(C(=S)Nc2cc3sc(C(C)(C)C)nc3cc2N2CCN(C)CC2)CC1` belongs 190 to 193 °C; to `Cc1n[nH]c2cc(F)ccc12`, 116 to 117 °C; to `CC(C)COC(=O)Nc1nc(N2CC=CCC2)nc2nc(=O)on12`, 210 to 215 °C.
`CC(C)(Sc1nc2ccccc2cc1-c1ccccc1)C(=O)O` showed a melting point of 144 to 146 °C.
`CNC(=S)SCCC(=O)O` registered a melting point of 86 to 87 °C.
Turning to `O=C(Oc1cc(CBr)ccc1F)c1ccccc1`, the melting point lay in the range of 180 to 182 °C.
Compound `CC(C)(C)C(=O)Oc1ccc(C(=O)c2ccc(OC(=O)C(C)(C)C)cc2OC(=O)C(C)(C)C)cc1` returned a melting point of 94 to 96 °C.
As for `N#Cc1cc(-c2ccccc2)[nH]c1Sc1ccc(N)cc1`, the melting point was 146 to 147 °C.
Regarding `COc1ccc(C2Nc3ccccc3-c3c([N+](=O)[O-])cnn32)cc1` (centres undefined), the melting point fell in the range of 181 to 183 °C.
To `CC(C)Nc1c(-c2cc(F)cc(F)c2F)c(Cl)nc2ncnn12` belongs 151 °C; to `CCOC(=O)c1nccc(Oc2ccc3c(C(=O)O)cccc3c2)n1`, 214 to 217 °C; to `C=C(C)C(=O)OCCCc1ccc2c(c1)N(C(C)(C)C)N(O)N2`, 62 to 63.2 °C.
On to `Cc1nc(-n2ccc(OCc3ccccc3)cc2=O)sc1C(=O)NCc1ccc(F)cc1`, for which the melting point was in the range of 223 to 225 °C.
`COc1nc2cccc(C(=O)O)c2n1Cc1ccc(-c2ccccc2-c2nnn[nH]2)cc1` gave a melting point of 208 to 209 °C.
As to `CCCN(CCC)C1Cc2cccc3nc(SC)n(c23)C1` (centres undefined), the melting point lay within 49 to 52 °C.
To `Cc1cc2c(cc1-c1c[nH]c(C=CC(=O)O)c1)C(C)(C)CCC2(C)C` belongs 245 to 246 °C; to `CCCn1nc(-c2ccncc2)nc1-c1ccncc1`, 88 to 89 °C.
`O=C(CCl)Nc1cccc(C(=O)Cl)c1` returned a melting point of 106 to 108 °C.
Take `COC(=O)CC1CCCN(C(=O)c2ccc(N3CCCC3)cc2Cl)c2ccccc21` (centres undefined): the melting point was 158 °C.
`CCOc1ccc(C2=NN(CC3CC3)C(=O)[C@H]3CC=CC[C@@H]23)cc1OCC` (relative stereo) returned a melting point of 142 to 145 °C.
